According to patent US7049289B1, “Labelled glutamine and lysine analogues” (Amersham PLC, priority 1998, dated 2006):
Read-outs that look alike come from different tables or passages of the source. One block for each molecule: values may come before it. Where a SMILES comes first, the peptide text is derived from it. The star is where a group is joined. X1 = CC(=NO)C(C)(C)NCC(C)(CNC(C)(C)C(C)=NO)CN*; Cbz = O=C(OCc1ccccc1)*

Columns and labels:
[1] = ^125I radiolabelled; cited from earlier work
[2] = target: T1, fibrin (in vitro human plasma clot) (Homo sapiens, UniProt P02671+P02675+P02679); test: Incorporation into human plasma clots in vitro; format: biochemical; settings: for % specific uptake: % retained (with thrombin) - % retained (no thrombin); for % retained (no thrombin): control without thrombin and calcium chloride (non-specific binding); for % retained (with thrombin): human plasma clot, 60 minutes, ca. 20° C.
T1 construct: about 400 μl of human plasma containing the radiolabelled substrate; from tissue; host or cells: human plasma, clotted in vitro with added thrombin and calcium chloride
T1 sequence (P02671 20-644 isoform P02671-2 limits assumed): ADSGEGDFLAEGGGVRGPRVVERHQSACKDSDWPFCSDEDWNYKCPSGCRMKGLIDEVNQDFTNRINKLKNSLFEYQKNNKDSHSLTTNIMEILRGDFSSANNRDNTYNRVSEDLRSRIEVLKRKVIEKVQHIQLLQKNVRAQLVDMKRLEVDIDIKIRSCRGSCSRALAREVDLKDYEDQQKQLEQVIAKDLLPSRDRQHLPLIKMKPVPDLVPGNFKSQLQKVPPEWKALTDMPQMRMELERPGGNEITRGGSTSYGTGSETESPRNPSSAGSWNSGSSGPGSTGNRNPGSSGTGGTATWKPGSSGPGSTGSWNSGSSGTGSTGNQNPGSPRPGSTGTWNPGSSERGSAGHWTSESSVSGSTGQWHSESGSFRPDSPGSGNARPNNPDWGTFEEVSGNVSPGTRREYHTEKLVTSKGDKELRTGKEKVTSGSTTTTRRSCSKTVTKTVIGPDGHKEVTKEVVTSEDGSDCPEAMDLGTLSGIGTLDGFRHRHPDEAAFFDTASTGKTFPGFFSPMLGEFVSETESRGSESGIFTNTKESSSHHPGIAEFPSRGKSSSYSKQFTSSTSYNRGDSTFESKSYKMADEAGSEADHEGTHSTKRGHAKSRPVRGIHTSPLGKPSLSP
T1 sequence (P02675 45-491 limits assumed): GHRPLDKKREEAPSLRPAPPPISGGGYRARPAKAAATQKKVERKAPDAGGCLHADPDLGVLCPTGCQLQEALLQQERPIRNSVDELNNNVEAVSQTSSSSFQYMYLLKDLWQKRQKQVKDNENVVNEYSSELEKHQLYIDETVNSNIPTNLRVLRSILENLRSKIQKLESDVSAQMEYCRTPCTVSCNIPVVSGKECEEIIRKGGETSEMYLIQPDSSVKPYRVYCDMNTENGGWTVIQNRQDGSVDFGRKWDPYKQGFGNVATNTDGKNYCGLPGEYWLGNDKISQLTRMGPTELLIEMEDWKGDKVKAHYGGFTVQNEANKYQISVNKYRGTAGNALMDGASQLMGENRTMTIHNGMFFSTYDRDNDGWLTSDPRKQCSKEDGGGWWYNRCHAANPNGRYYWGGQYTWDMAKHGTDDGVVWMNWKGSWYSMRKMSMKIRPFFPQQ
T1 sequence (P02679 27-437 isoform P02679-2 limits assumed): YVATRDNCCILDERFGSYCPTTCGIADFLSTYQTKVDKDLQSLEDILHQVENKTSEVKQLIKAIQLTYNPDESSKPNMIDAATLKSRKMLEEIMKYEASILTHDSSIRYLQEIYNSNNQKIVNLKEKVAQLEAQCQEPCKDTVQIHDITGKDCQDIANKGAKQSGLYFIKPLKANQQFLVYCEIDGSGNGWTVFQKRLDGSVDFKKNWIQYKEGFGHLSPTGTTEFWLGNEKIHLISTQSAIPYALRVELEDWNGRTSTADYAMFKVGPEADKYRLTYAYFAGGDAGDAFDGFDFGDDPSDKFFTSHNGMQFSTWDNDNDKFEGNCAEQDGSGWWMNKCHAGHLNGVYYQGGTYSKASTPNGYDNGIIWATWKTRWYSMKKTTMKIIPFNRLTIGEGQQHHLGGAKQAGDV
Summary of the method: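 Fibrin incorporation is expressed as the fraction of total radioactivity retained with filtered clots, corrected for non-specific binding in controls lacking thrombin and calcium chloride. Clotting was induced by thrombin in Ca2+-containing Tris-buffered saline (pH 7.5) with human plasma carrying about 10 kBq/ml tracer, for 60 min at ambient temperature before EDTA quench.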

[3] = Incorporation into clots induced in a rat model (rat inferior vena cava model); format: in vivo, rat (Male Wistar); settings: for % id/g (clot) / Rel. Conc. (cpm/g of clot by dose/g animal): sacrificed after 60 min
Summary of the method: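 Male Wistar rats (250–350 g) under 15% urethane anaesthesia, with the vena cava isolated by laparotomy. Compounds given 5 min (fresh clot) or 60 min (aged clot) after clot induction; clot, blood, lung and heart removed 60 min later, weighed and counted. Uptake expressed as cpm/g clot per dose/g animal and as clot-to-background tissue ratio.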

[4] = Imaging of clots induced in a rat model (jugular vein); format: in vivo, rat (male Wistar); settings: planar gamma camera images 15–180 min p.i.
Protocol: Clots were induced in male Wistar rats (250–350 g) as described in Example 17, with the exception that for these experiments the platinum wire was located in the jugular vein. The compounds were injected 60 min […] and planar images acquired between 15–180 min p.i. A Park medical Isocam I gamma camera was used for these experiments, 300K or 150K counts were of the thorax were collected using a LEUHR or a LEPH collimator. Clots were visualised from 15 min p.i.

[5] = human, plasma, 2 h
Protocol: (§1) To a portion of compound (50 μl, 10 MBq/ml) was added an equal volume of plasma (rat or human) or saline. The mixtures were incubated at 37° C. and the stability measured by HPLC (system C) at 0, 30 and 120 minutes. The saline dilution acted as a control.

[6] = rat, plasma, 2 h
Protocol: as §1

[7] = parameters: species or system rat (Male Wistar); settings: rat, in vivo; for % ID Blood / % ID GI Tract / % ID Heart / % ID Kidney / % ID Liver / % ID Lung / % ID Muscle / % ID Urine: iv
Protocol: The resolution of a clot image is dependant on the combination of rate of incorporation of the radiopharmaceutical and its blood/tissues clearance rate. For this reason the biodistribution of several compounds has been determined in rats. Male Wistar (100–150 g) rats were injected i.v. with 0.1–0.2 ml of radiolabelled tracer solution (8 MBq/ml) and dissected at different times post-injection. The % ID in each of the selected tissues was measured. Some animals were kept in metabolism cages to be able to determine the % ID excreted in urine and faeces. The dissection times used for the agent were 15, 30, 60, 240 min. Data are shown as mean of % ID (n=3).

[8] = In vitro plasma stability (rat plasma)
Protocol: as §1

[9] = In vitro plasma stability (human plasma)
Protocol: as §1

[10] = Aged Clots: injected 60 min post-induction
[11] = Fresh Clots: injected 5 min post-induction

Molecule: NQEQVSPYTLTLLK [synthetic analogue of the alpha-2 antiplasmin N-terminal peptide, WO 89/00051]
uptake in thrombin clots in vitro (in words) [1]: taken up in thrombin clots in vitro

% specific uptake [2]: 35.3%
% retained (no thrombin) [2]: 0.2%
% retained (with thrombin) [2]: 35.5%
Molecule: Ac-NQEQVSPYTLLKG-Pn216 (also: 99mTc complex) [^99mTc-Cmpd 5]
Clot/blood ([3]; Aged Clots): 13
Clot/heart ([3]; Aged Clots): 33
Clot/liver ([3]; Aged Clots): 24
Clot/lung ([3]; Aged Clots): 31
% id/g (clot) [3, 10]: 3.6 ± 1.7 % id/g
Rel. Conc. (cpm/g of clot by dose/g animal) [3, 10]: 11 ± 5.1
Clot/blood ([3]; Fresh Clots): 21
Clot/heart ([3]; Fresh Clots): 51
Clot/liver ([3]; Fresh Clots): 43
Clot/lung ([3]; Fresh Clots): 23
% id/g (clot) [3, 11]: 6.0 ± 2.1 % id/g
Rel. Conc. (cpm/g of clot by dose/g animal) [3, 11]: 16 ± 5.8
suitability for imaging clots (in words) [4]: suitable for imaging clots
% intact at 120 mins [5]: >90%
% intact at 120 mins [6]: >90%

% specific uptake [2]: 39.0%
% retained (no thrombin) [2]: 0.3%
% retained (with thrombin) [2]: 39.3%
Molecule: Ac-NQEQVSPYTLLKG-Pn44 (also: 99mTc complex) [^99mTc-Cmpd 3]
t1/2 (blood clearance, biological half life) [7]: 2 h
% ID Blood ([7]; 0.25 h): 5.3 % ID
% ID GI Tract ([7]; 0.25 h): 13.5 % ID
% ID Heart ([7]; 0.25 h): 0.2 % ID
% ID Kidney ([7]; 0.25 h): 7.6 % ID
% ID Liver ([7]; 0.25 h): 6.2 % ID
% ID Lung ([7]; 0.25 h): 0.7 % ID
% ID Muscle ([7]; 0.25 h): 14.7 % ID
% ID Urine ([7]; 0.25 h): 14.9 % ID
% ID Blood ([7]; 0.5 h): 1.8 % ID
% ID GI Tract ([7]; 0.5 h): 15.1 % ID
% ID Heart ([7]; 0.5 h): 0.1 % ID
% ID Kidney ([7]; 0.5 h): 4.9 % ID
% ID Liver ([7]; 0.5 h): 4.1 % ID
% ID Lung ([7]; 0.5 h): 0.4 % ID
% ID Muscle ([7]; 0.5 h): 10.4 % ID
% ID Urine ([7]; 0.5 h): 34.3 % ID
% ID Blood ([7]; 1 h): 1.6 % ID
% ID GI Tract ([7]; 1 h): 18.0 % ID
% ID Heart ([7]; 1 h): 0.1 % ID
% ID Kidney ([7]; 1 h): 4.6 % ID
% ID Liver ([7]; 1 h): 4.0 % ID
% ID Lung ([7]; 1 h): 0.3 % ID
% ID Muscle ([7]; 1 h): 5.1 % ID
% ID Urine ([7]; 1 h): 37.0 % ID
% ID Blood ([7]; 4 h): 0.6 % ID
% ID GI Tract ([7]; 4 h): 20.7 % ID
% ID Heart ([7]; 4 h): 0.04 % ID
% ID Kidney ([7]; 4 h): 3.4 % ID
% ID Liver ([7]; 4 h): 3.0 % ID
% ID Lung ([7]; 4 h): 0.3 % ID
% ID Muscle ([7]; 4 h): 2.9 % ID
% ID Urine ([7]; 4 h): 42.0 % ID
Clot/blood ([3]; Aged Clots): 8
Clot/heart ([3]; Aged Clots): 23
Clot/liver ([3]; Aged Clots): 5
Clot/lung ([3]; Aged Clots): 11
% id/g (clot) [3, 10]: 2.1 ± 0.8 % id/g
Rel. Conc. (cpm/g of clot by dose/g animal) [3, 10]: 6.2 ± 2.2
Clot/blood ([3]; Fresh Clots): 10
Clot/heart ([3]; Fresh Clots): 17
Clot/liver ([3]; Fresh Clots): 6
Clot/lung ([3]; Fresh Clots): 8
% id/g (clot) [3, 11]: 1.4 ± 0.4 % id/g
Rel. Conc. (cpm/g of clot by dose/g animal) [3, 11]: 5.1 ± 1.2
% intact at 120 mins [5]: >90%
% intact at 120 mins [6]: >90%

% specific uptake [2]: 40.6%
% retained (no thrombin) [2]: 0.7%
% retained (with thrombin) [2]: 41.3%
remaining at 2 h [8]: > 90%
remaining at 2 h [9]: > 90%
Molecule: CC(=NO)C(C)(C)NCC(C)(CNC(=O)CNC(=O)[C@H](CCCCN)NC(=O)[C@H](CC(C)C)NC(=O)[C@H](CC(C)C)NC(=O)[C@@H](NC(=O)[C@H](Cc1ccc(O)cc1)NC(=O)[C@@H]1CCCN1C(=O)[C@H](CO)NC(=O)[C@@H](NC(=O)[C@H](CCC(N)=O)NC(=O)[C@H](CCC(=O)O)NC(=O)[C@H](CCC(N)=O)NC(=O)[C@H](CC(N)=O)NC(=O)OCc1ccccc1)C(C)C)[C@@H](C)O)CNC(C)(C)C(C)=NO (some centres unmarked) [^99mTc-Cmpd 7, metal not drawn] (Cbz-NQEQVSPYTLLKG-X1; C-terminus assumed)
Clot/blood ([3]; Aged Clots): 9
Clot/heart ([3]; Aged Clots): 15
Clot/liver ([3]; Aged Clots): 3
Clot/lung ([3]; Aged Clots): 7
% id/g (clot) [3, 10]: 2.1 ± 0.3 % id/g
Rel. Conc. (cpm/g of clot by dose/g animal) [3, 10]: 6.5 ± 1.3
Clot/blood ([3]; Fresh Clots): 15
Clot/heart ([3]; Fresh Clots): 21
Clot/liver ([3]; Fresh Clots): 6
Clot/lung ([3]; Fresh Clots): 11
% id/g (clot) [3, 11]: 4.8 ± 1.3 % id/g
Rel. Conc. (cpm/g of clot by dose/g animal) [3, 11]: 14.5 ± 4.4
